Experimental findings from patent publication US8084649B2, “Herbicides” (Syngenta Crop Protection, inc., priority 2007, dated 2011) are described below.

Common to all, as to assay type: in vivo
The test system of experiment [1] is Echinochloa crus-galli (ECHCG). The experiment can be described thus: Post-emergence herbicidal activity, glasshouse pot test. Particulars: Echinochloa crus-galli, evaluated after 14 or 15 days, read-out: Post-emergence activity, ECHCG (100=total damage to plant; 0=no damage to plant); for pest or weed control at 500 g/ha: rate 500 g/ha; for pest or weed control at 125 g/ha: rate 125 g/ha. Put shortly:
(§1)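 Test species were grown in sterilised soil for 10 days, sprayed post-emergence with the aqueous formulated compound, and kept in a greenhouse under optimum conditions. Herbicidal effect was assessed after 14 or 15 days as percent damage, where 0 means no effect.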

Experiment [2] has as its system Digitaria sanguinalis (DIGSA). The description is as above. Particulars: Digitaria sanguinalis, evaluated after 14 or 15 days, read-out: Post-emergence activity, DIGSA (100=total damage to plant; 0=no damage to plant); for pest or weed control at 500 g/ha: rate 500 g/ha; for pest or weed control at 125 g/ha: rate 125 g/ha. Put shortly:
as §1

Experiment [3] has as its system Lolium perenne (LOLPE). The description is as above. Particulars: Lolium perenne, evaluated after 14 or 15 days, read-out: Post-emergence activity, LOLPE (100=total damage to plant; 0=no damage to plant); for pest or weed control at 500 g/ha: rate 500 g/ha; for pest or weed control at 125 g/ha: rate 125 g/ha. In short, it runs like this:
as §1

The subject of experiment [4] is Avena fatua (AVEFA). The experiment is described as above. Conditions: Avena fatua, evaluated after 14 or 15 days, read-out: Post-emergence activity, AVEFA (100=total damage to plant; 0=no damage to plant); for pest or weed control at 500 g/ha: rate 500 g/ha; for pest or weed control at 125 g/ha: rate 125 g/ha. Put shortly: as §1
For experiment [5], the system named is Setaria faberi (SETFA). Described as above. Particulars: Setaria faberi, evaluated after 14 or 15 days, read-out: Post-emergence activity, SETFA (100=total damage to plant; 0=no damage to plant); for pest or weed control at 500 g/ha: rate 500 g/ha; for pest or weed control at 125 g/ha: rate 125 g/ha. Put shortly:
as §1

The test system of experiment [6] is Alopecurus myosuroides (ALOMY). Described as above. Particulars: Alopecurus myosuroides, evaluated after 14 or 15 days, read-out: Post-emergence activity, ALOMY (100=total damage to plant; 0=no damage to plant); for pest or weed control at 500 g/ha: rate 500 g/ha; for pest or weed control at 125 g/ha: rate 125 g/ha. Put shortly: as §1
Experiment [7] deals with Echinochloa crus-galli (ECHCG). As to the kind of experiment: Pre-emergence herbicidal activity, glasshouse pot test. Conditions: Echinochloa crus-galli, 480 h, rate 500 g/ha, evaluated after 20 days, read-out: Pre-emergence activity, ECHCG (100=total damage to plant; 0=no damage to plant). Put shortly:
(§2)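 One day after sowing in sterilised soil, pots receive an aqueous spray made from the compound dissolved in acetone and a formulation of emulsifier, N-methylpyrrolidone, glycol ether and X-77 wetter. Injury is assessed 20 days later against untreated expectations, scored from 0 (no damage) to 100.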

Experiment [8] concerns Digitaria sanguinalis (DIGSA). The experiment is described as above. Particulars: Digitaria sanguinalis, 480 h, rate 500 g/ha, evaluated after 20 days, read-out: Pre-emergence activity, DIGSA (100=total damage to plant; 0=no damage to plant). In short, it runs like this: as §2
For experiment [9], the system named is Lolium perenne (LOLPE). Described as above. Conditions: Lolium perenne, 480 h, rate 500 g/ha, evaluated after 20 days, read-out: Pre-emergence activity, LOLPE (100=total damage to plant; 0=no damage to plant). Put shortly:
as §2

Experiment [10] deals with Avena fatua (AVEFA). Described as above. Particulars: Avena fatua, 480 h, rate 500 g/ha, evaluated after 20 days, read-out: Pre-emergence activity, AVEFA (100=total damage to plant; 0=no damage to plant). Put shortly: as §2
In experiment [11] the test system is Setaria faberi (SETFA). The experiment is described as above. Conditions: Setaria faberi, 480 h, rate 500 g/ha, evaluated after 20 days, read-out: Pre-emergence activity, SETFA (100=total damage to plant; 0=no damage to plant). In short, it runs like this:
as §2

Experiment [12] has as its system Alopecurus myosuroides (ALOMY). The description is as above. Particulars: Alopecurus myosuroides, 480 h, rate 500 g/ha, evaluated after 20 days, read-out: Pre-emergence activity, ALOMY (100=total damage to plant; 0=no damage to plant). In short, it runs like this:
as §2

Take `CCc1cc(C)cc(CC)c1C1=C(O)CC(CCSC)CC1=O` (stereo not drawn) [Compound T16]: the pest or weed control at 500 g/ha in experiment [1] was determined as 70%; in experiment [2], 100%; in experiment [3], 90%; in experiment [4], 80%; in [5] it was 90%; in experiment [6] it was 100%. The pest or weed control at 500 g/ha in [7] is 90%; in experiment [8] it was 100%; in experiment [9], 100%; in experiment [10], 70%; in [11], 100%; in experiment [12], 90%.
`CCOC1=C(c2c(CC)cc(C)cc2CC)C(=O)CC2(CCOCC2)C1` [Compound P33]: the pest or weed control at 125 g/ha in experiment [1] stood at 0%; in experiment [2] it was 30%; in experiment [3] it was 0%; in experiment [4] it was 0%; in experiment [5] it was 0%; in [6], 20%. The pest or weed control at 500 g/ha in experiment [7] worked out at 10%; in experiment [8] it was 70%; in [9], 50%; in experiment [10], 30%; in experiment [11], 10%; in [12], 90%.
Consider `CCc1cc(C)cc(CC)c1C1=C(OC)CC2(CCOCC2)CC1=O` [Compound P32], for which the pest or weed control at 125 g/ha in [1] came out at 0%; in experiment [2], 0%; in [3], 0%; in experiment [4], 0%; in [5], 0%; in experiment [6], 20%. The pest or weed control at 500 g/ha came out at 20% in experiment [7]; 50% in experiment [8]; 100% in experiment [9]; 100% in experiment [10]; 10% in experiment [11]; 100% in experiment [12].
On to `CCCS(=O)(=O)C(C)CC1CC(=O)C(c2c(C)cc(C)cc2C)=C(O)C1` (stereo not drawn) [Compound T40], for which the pest or weed control at 125 g/ha is 60% in experiment [1]; 50% in experiment [2]; 80% in [3]; 30% in experiment [4]; 50% in experiment [5]; 80% in experiment [6]. Further, the pest or weed control at 500 g/ha in experiment [7] was 70%; in experiment [8] it was 50%; in [9] it was 90%; in experiment [10], 50%; in [11] it was 60%; in [12], 80%.
On to `CCc1cc(C)cc(C)c1C1=C(O)CC(CCSC)CC1=O` (stereo not drawn) [Compound T13], for which the pest or weed control at 500 g/ha in experiment [1] was 90%; in experiment [2], 100%; in [3], 80%; in experiment [4], 80%; in experiment [5], 90%; in [6], 90%. The pest or weed control at 500 g/ha was found to be 80% in experiment [7]; 100% in experiment [8]; 100% in experiment [9]; 70% in experiment [10]; 80% in experiment [11]; 100% in experiment [12].
On to `CCc1cc(C)cc(C)c1C1=C(O)CC2(CCOCC2)CC1=O` [Compound T27], for which the pest or weed control at 500 g/ha in experiment [1] turned out to be 100%; in experiment [2] it was 90%; in experiment [3], 80%; in experiment [4], 90%; in [5] it was 100%; in experiment [6] it was 80%. Further, the pest or weed control at 500 g/ha in [7], in experiment [8], in experiment [9], in experiment [10], in [11] and in experiment [12] was 100% in each case.
